From US9993553B2, “Methods and compositions for targeted release of molecules from nanoscale carriers” (The Regents of the University of California, priority 2013, dated 2018)
{6-FAM} = 6-carboxyfluorescein dye; {BHQ-1} = Black Hole Quencher-1

Columns and labels:
[1] = X-ray radiation cleavage of 6-FAM labelled DNA, fluorescence spectroscopy, with DMSO as hydroxyl radical scavenger; format: physicochemical; conditions: 100 Gy
Description: X-ray radiation studies were performed, using DMSO as a hydroxyl radical scavenger at concentrations from 0-100 mM. In a 24-well plate, 400 μL of purified 6-FAM-DNA-AuNPs were mixed with 400 μL of 2×DMSO solution, or PBS and the samples were irradiated with X-rays. After radiation, the AuNPs were removed from solution by centrifugation (13,000 rpm, 15 min) and supernatant fluorescence was measured (Excitation at 490 nm and Emission at 514 nm). Non-radiated controls were identically prepared and measured.
6-FAM has a high fluorescence yield (>80%) and high quenching when attached to AuNPs. The cleavage via X-ray irradiation was studied with optical fluorescence spectroscopy.
Black Hole Quencher®-1 DNA, coupled to 6-FAM, was purchased from IDT (6-FAM-5′-[…]-3′-BHQ-1®). It was irradiated with DMSO at concentrations from 0-100 mM in 24 well plates, and the fluorescence from cleaved DNA was measured. […] X-ray radiated and cleaved 6-FAM molecules were incubated with MCF-7 cells for 4 hours.

MCF-7 cells = experiment: Clonogenic assay with X-ray irradiation; format: cell-based
Description: MCF-7 cells were plated at a rate of 50,000 cells/ml in a 24-well cell culture plate. They were then incubated with DOX, DOX-DNA, and DOX-DNA-AuNPs for 12 hours, and then irritated with 0, 2, 5, and 10 Gy X-rays. The cells were then counted, using a hemocytometer, and replated in a 6 well plate at 1000 cell per well for the 0 and 2 Gy dose; 3000 cells for the 5 Gy; and 9000 for the 10 Gy. The plates were incubated for 14 days, and then fixed with gluteraldhyde and stained with crystal violet. The colonies with 50 or more cells were then counted.

Compound | Effect of DMSO (hydroxyl radical scavenger) on cleavage / fluorescence ([1]; DMSO up to 100 mM) | Cleavage after X-ray radiation ([1]; zero DMSO) | Cleavage (fluorescence) after X-ray radiation in the presence of AuNPs ([1]; zero DMSO, mixture with AuNPs, no covalent conjugation) | Measured cell survivability (MCF-7 cells; 0 Gy) | Measured cell survivability (MCF-7 cells; 2 Gy) | Measured cell survivability (MCF-7 cells; 5 Gy) | Measured cell survivability (MCF-7 cells; 10 Gy) | Survivability of MCF-7 cells (MCF-7 cells; DOX alone, no radiation) | Toxicity to MCF-7 cells (MCF-7 cells; DOX alone, no radiation, 24 million free DOX in the cell)
6-FAM-5′-TTAGGGTTAGGG-3′-BHQ-1® (DNA, 5' {6-FAM}, 3' {BHQ-1}, backbone not given here) [Q-DNA-6-FAM, Black Hole Quencher-1 DNA coupled to 6-FAM, purchased from IDT] | significantly reduced the fluorescence | 25% | 4% |  |  |  |  |  | 
COc1cccc2c1C(=O)c1c(O)c3c(c(O)c1C2=O)C[C@@](O)(C(=O)CO)C[C@@H]3O[C@H]1C[C@H](N)[C@H](O)[C@H](C)O1 [DOX, doxorubicin] |  |  |  | 0.81 ± .01 | 0.61 ± .05 | 0.28 ± .02 | 0.07 ± .002 | 80% | about 20%
